Measured values as given in patent US8961930B2, “Isatin derivatives for use as in vivo imaging agents” (Imperial Innovations Limited, priority 2008, dated 2015).

Tests used:
[1] = molecular target: T1, caspase 7 (Homo sapiens, UniProt P55210); assay: Fluorimetric in vitro caspase inhibition assay (7-AMC), caspase 7; type: biochemical; details: recombinant human caspase 7, 10 μM Ac-DEVD-AMC
T1 construct: purchased Biomol International, UK
T1 sequence (P55210 24-198 limits assumed): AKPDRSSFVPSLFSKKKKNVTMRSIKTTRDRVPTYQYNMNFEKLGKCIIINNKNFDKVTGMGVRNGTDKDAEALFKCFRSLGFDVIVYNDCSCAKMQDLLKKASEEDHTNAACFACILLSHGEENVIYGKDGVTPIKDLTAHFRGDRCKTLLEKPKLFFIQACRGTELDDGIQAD
T1 sequence (P55210 207-303 limits assumed): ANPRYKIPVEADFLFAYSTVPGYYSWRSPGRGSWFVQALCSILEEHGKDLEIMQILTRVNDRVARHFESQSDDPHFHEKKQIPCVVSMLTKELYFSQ
Experimental: (§1) Recombinant human caspases-1, -3, -6, -7, and -8 and their peptide-specific substrates were purchased from Biomol International, UK Inhibition of the recombinant caspases by non-radioactive isatins was assessed using a fluorometric assay that measures the accumulation of a fluorogenic product, 7-amino-4-methylcoumarin (7-AMC). All assays were performed in 96-well plates at a volume of 200 μl per well. The assays were performed at 37° C. in an appropriate reaction buffer as described below for each caspase. For caspase 1, the buffer comprised of 0.1% CHAPS, 100 mM NaCl, 5 mM 2-mercaptoethanol, 100 mM HEPES (pH 7.4), 2 mM EDTA, 10% sucrose, and 10 μM of the peptide substrate Ac-YVAD-AMC. For caspase 3: 20 mM HEPES (pH 7.4), 10% sucrose, 100 mM NaCl, 0.1% CHAPS, 2 m, mM EDTA, and 10 μM Ac-DEVD-AMC. For caspase 6: 20 mM HEPES (pH 7.4), 10% sucrose, 100 mM NaCl, 0.1% CHAPS, 2 mM EDTA, and 10 μM Ac-VEID-AMC. For caspase 7: 20 mM HEPES (pH 7.4), 10% sucrose, 5 mM 2-mercaptoethanol, 100 mM NaCl, 0.1% CHAPS, 2 mM EDTA, 10 μM Ac-DEVD-AMC. For caspase 8: 20 mM HEPES (pH 7.4), 10% sucrose, 100 mM NaCl, 0.1% CHAPS, 2 mM EDTA, and 10 μM Ac-IETD-AMC. The Buffers contained non-radioactive isatins in DMSO at a final concentration of 500, 50, 5 μM; 500, 50, 5 nM; 500, 50, 5 pM; the final concentration of DMSO in all wells was 5% of the total volume. Recombinant caspases were used at 0.5 units per assay (˜500 pmol substrate converted per h). All reagents except the peptide substrate were pre-incubated for 10 min. The peptide substrate (final concentration 10 μM) was then added and the plate was incubated for a further 30 min; 30 min was selected after initial linearity study where reaction was assessed after 10, 30, 60 or 90 min. The 30 min time point was selected. Respective control wells contained all reaction components without enzyme. The amount of 7-AMC produced was measured on a fluorescence microplate reader (Victor2; Perkin-Elmer Life sciences) at excitation and emission wavelengths of 355 nm and 460 nm, respectively. The concentration of isatin that inhibits the caspase activity by 50% (EC50) was estimated by non-linear regression analysis using GraphPad Prism (Version 4.0 for Windows, GraphPad Software, San Diego Calif. USA). All the isatins were analyzed in duplicate; the assays were repeated once. Known compounds 13-16 were included as reference compounds.
(§2) The data are the average for two runs, each of which was duplicated, at nine concentrations ranging from 5 pM to 500 μM; the drug concentration required to inhibit each enzyme by 50% (EC50) was obtained from nonlinear regression analysis of the inhibition profiles.

[2] = molecular target: T2, caspase 1 (Homo sapiens, UniProt P29466); assay: Fluorimetric in vitro caspase inhibition assay (7-AMC), caspase 1; type: biochemical; details: recombinant human caspase 1, 10 μM Ac-YVAD-AMC; read-out: Caspase EC50 (nM), 1/6/8: caspase 1
T2 construct: purchased Biomol International, UK
T2 sequence (P29466 120-297 limits assumed): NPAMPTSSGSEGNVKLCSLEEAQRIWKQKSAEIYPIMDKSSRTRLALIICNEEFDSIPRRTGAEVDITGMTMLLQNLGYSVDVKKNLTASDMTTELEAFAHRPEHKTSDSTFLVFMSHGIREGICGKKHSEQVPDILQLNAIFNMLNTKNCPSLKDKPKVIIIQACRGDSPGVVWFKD
T2 sequence (P29466 317-404 limits assumed): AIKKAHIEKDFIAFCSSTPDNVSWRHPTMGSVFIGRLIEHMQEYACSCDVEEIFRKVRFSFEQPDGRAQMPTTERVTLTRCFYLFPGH
Experimental: as §1, §2

[3] = molecular target: T3, caspase 6 (Homo sapiens, UniProt P55212); assay: Fluorimetric in vitro caspase inhibition assay (7-AMC), caspase 6; type: biochemical; details: recombinant human caspase 6, 10 μM Ac-VEID-AMC; read-out: Caspase EC50 (nM), 1/6/8: caspase 6
T3 construct: purchased Biomol International, UK
T3 sequence (P55212 24-179 limits assumed): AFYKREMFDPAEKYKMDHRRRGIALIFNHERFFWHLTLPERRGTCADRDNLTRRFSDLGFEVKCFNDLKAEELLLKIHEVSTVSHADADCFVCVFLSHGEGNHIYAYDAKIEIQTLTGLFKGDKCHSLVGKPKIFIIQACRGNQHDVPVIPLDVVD
T3 sequence (P55212 194-293 limits assumed): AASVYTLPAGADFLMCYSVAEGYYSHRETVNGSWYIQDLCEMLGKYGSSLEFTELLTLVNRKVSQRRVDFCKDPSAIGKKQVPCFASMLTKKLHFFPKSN
Experimental: as §1, §2

[4] = molecular target: T4, caspase 8 (Homo sapiens, UniProt Q14790); assay: Fluorimetric in vitro caspase inhibition assay (7-AMC), caspase 8; type: biochemical; details: recombinant human caspase 8, 10 μM Ac-IETD-AMC; read-out: Caspase EC50 (nM), 1/6/8: caspase 8
T4 construct: purchased Biomol International, UK
Experimental: as §1, §2

[5] = system: 38C13 lymphoma cells; assay: Binding in 38C13 lymphoma cells undergoing treatment-induced apoptosis; type: cell-based, murine; details: 38C13 cells, 4-HC 1 μg/mL 24 h
Experimental: (left panel). Chemical structure and [^18F]11 binding in 38C13 lymphoma cells treated with 4-hydroperoxycyclophosphamide 4-HC (4-HC; 1 μg/mL; 24 h) to induce apoptosis. For all treated and control samples, radioactivity data were expressed as decay-corrected counts per milligram of total cellular protein. (right panel) The effect of 4-HC on the binding of the low affinity probe, [^18F]42, in 38C13 lymphoma cells. Data are mean±s.e.m.
A further aspect of the project has involved analysis of the weak isatin caspase-3 inhibitor N-[1-(2-Fluoroethyl)-1H-[1,2,3]-triazol-4-yl]isatin (compound 42). […] However, [^18F]42 lacks the pyrrolidine sulphonamide functionality that confers high affinity and selectivity for caspase-3. [^18F]42 was investigated in cell uptake assays for direct comparison with [^18F]11. The purpose of this was to examine the uptake profiles of the compounds in an effort to determine if uptake was the result of increased cell permeability, a characteristic trait of apoptotic cells, or the result of caspase-3 binding. Unlike [^18F]11, there was no increase in [^18F]42 binding following drug treatment (see FIG. 26), supporting the notion that [^18F]11 binding is due to caspase 3 activation.

[6] = In vivo biodistribution studies (Example 5); parameters: species or system C3H/hej mice; details: mice, i.v., 2-60 min
Experimental: The stability of novel compound [^18F]11 and known compound [^125I]14 in plasma and liver was measured over time following administration in mice. [^18F]11 was injected intravenously into tumor-bearing mice and its tissue distribution was measured in selected tissues at 2, 15 and 60 min after injection. [^125I]14 was injected intravenously into non-tumour bearing mice and its tissue distribution was measured at selected time points from 2 to 60 minutes after injection. Furthermore, the in vivo metabolic stability of the radiotracer was determined from plasma and liver samples and, for [^18F]11, in urine samples.
The radiation-induced murine fibrosarcoma (RIF-1) tumour cells^20 were maintained in RPMI 1640 medium (Invitrogen Ltd, Paisley, UK) supplemented with 10% fetal calf serum (BioWhittaker Europe Ltd, Verviers, Belgium), 2 mM L-glutamine, 100 U/mL penicillin, 100 μg/mL streptomycin and 0.25 μg/mL fungizone (Gibco, UK) at 37° C. in a humidified incubator with 5% CO2. All animal work was done by licensed investigators in accordance with the United Kingdom's “Guidance on the Operation of Animals (Scientific Procedures) Act 1986” (HMSO, London, United Kingdom, 1990) and in full compliance with government regulations and guidelines on the welfare of animals in experimental neoplasia^21. Tumors were established in mice by subcutaneous injection of 5×10^5 cells on the back of male C3H/hej mice (Harlan, Bicester, Oxfordshire, UK). Tumour growth was monitored every two days using electronic callipers, and tumor volume estimated using the equation (π/6)×L×W×D (L=length, W=width and D=depth). Animals were selected for biodistribution studies of [^18F]11 when the tumors reached ˜100-150 mm^3; biodistribution of [^125I]14 was done in non-tumor-bearing mice.
Mice were injected intravenously via the lateral vein with 0.08-0.13 mL of radioactivity (˜0.37 MBq of [^125I]14 or 3.7 MBq of [^18F]11) dissolved in phosphate buffered saline. At selected times after injection (2-60 min) mice were sacrificed by exsanguination via cardiac puncture under general anesthesia (isofluorane inhalation). Aliquots of heparinised blood were rapidly centrifuged (2000 g for 5 minutes) to obtain plasma. The radioactivity contained in tissues was determined by gamma-counting on a Cobra II Auto-Gamma counter (Packard Instruments, Meriden, Conn., USA) and expressed as a percentage of injected dose per gram of tissue (% ID/g). A minimum of three mice was used for each time point. All animals were treatment-naïve.

[7] = In vivo metabolism studies, radio-HPLC of plasma, liver and urine; parameters: species or system C3H/hej mice
Experimental: [^18F]11 was injected intravenously into tumor-bearing mice and its tissue distribution was measured in selected tissues at 2, 15 and 60 min after injection. […] Furthermore, the in vivo metabolic stability of the radiotracer was determined from plasma and liver samples and, for [^18F]11, in urine samples.
In vivo metabolism studies were also performed in C3H/hej mice. […] Plasma, liver and urine samples were snap-frozen in liquid nitrogen and kept in pre-weighed scintillation counting tubes on dry ice prior to analysis.
Immediately prior to extraction the samples were thawed and placed on ice. For extraction, ice cold acetonitrile (1.5 mL) was added to plasma (0.2 mL); S9 incubation samples (3 mL) containing acetonitrile were also analysed. Each mixture was centrifuged (15493×g, 4° C., 3 min) and the resulting supernatant was evaporated to dryness under vacuum at 40° C. using a rotary evaporator. Liver samples were homogenized with ice cold acetonitrile (1.5 mL) using an IKA Ultra-Turrax T-25 homogeniser prior to centrifugation. The residues were then re-suspended in HPLC mobile phase (1.2 mL) and filtered through a Minisart hydrophilic syringe filter (0.2 μm) (Sartorius, Goettingen, Germany). Urine samples were diluted with HPLC mobile phase, filtered as above. The samples (1 mL) were then analyzed by radio-HPLC on an Agilent 1100 series HPLC system (Agilent Technologies, Stockport, UK) equipped with a γ-RAM Model 3 gamma-detector and the Laura software (IN/US Systems inc., Florida, USA).
The stationary phase comprised of a Waters μBondapak C18 reverse-phase column (300×7.8 mm). […] Furthermore, to assess the fraction of [^18F]9-derived radioactivity associated with the plasma and liver pellets after extraction versus that remaining in the HPLC injectate, the total volume of HPLC injectate was recorded and an aliquot (0.1 mL) removed for counting. The radioactivity in the 0.1 mL aliquot and the pellet were then analyzed by gamma counting (Packard Instruments).

T4 sequence (Q14790 217-374 limits assumed): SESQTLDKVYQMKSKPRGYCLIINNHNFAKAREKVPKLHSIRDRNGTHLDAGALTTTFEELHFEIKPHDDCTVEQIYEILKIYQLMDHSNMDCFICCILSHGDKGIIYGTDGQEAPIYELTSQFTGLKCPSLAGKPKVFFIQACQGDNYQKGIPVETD
T4 sequence (Q14790 385-479 limits assumed): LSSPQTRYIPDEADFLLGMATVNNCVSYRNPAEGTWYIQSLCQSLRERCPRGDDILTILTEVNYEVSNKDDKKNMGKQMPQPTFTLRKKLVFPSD

O=C1C(=O)N(Cc2ccc(F)cc2)c2ccc(S(=O)(=O)N3CCC[C@H]3COc3cc(F)cc(F)c3)cc21 [Compound 3, (S)-1-(4-Fluorobenzyl)-5-(2-(3,5-difluorophenoxymethyl)-pyrrolidine-1-sulfonyl)isatin]
EC50 [1]: 16.8 nM
EC50 [2]: > 5000 nM
EC50 [3]: > 5000 nM
EC50 [4]: > 5000 nM

O=C1C(=O)N(c2cn(CCF)nn2)c2ccccc21 [[^18F]42, N-[1-(2-Fluoroethyl)-1H-[1,2,3]-triazol-4-yl]isatin]
binding following drug treatment [5]: no increase

O=C1C(=O)N(Cc2ccc(I)cc2)c2ccc(S(=O)(=O)N3CCC[C@H]3COc3ccccc3)cc21 [[^125I]14, (S)-1-(4-iodobenzyl)-5-(2-phenoxymethyl-pyrrolidine-1-sulfonyl)isatin, reference compound]
tissue distribution and elimination [6]: distributed rapidly to the major organs and was also rapidly eliminated
parent as share of the radioactivity detected in the liver ([7]; 10 min after injection, n=3): < 15%
time until parent fully metabolized in the liver ([7]; mice, after injection): ≤ 30 min
time to complete elimination of parent from plasma ([7]; mice, i.v.): ≤ 10 min
